The record followed here is patent EP0062319A1, “3-Methyl-1-(2-(3-naphthyloxy)-ethyl)-2-pyrazolin-5-one for the treatment of the metastasis and growth of tumour cells” (BAYER AG, priority 1981, dated 1982).

Test [1] concerns Lewis-Lungenkarzinom-Zellen. Briefly: DNA synthesis by 3H-thymidine uptake in Lewis lung carcinoma cells in vitro. It is filed as cell-based, Mäuse. The conditions noted are these: 0,1, 1,0, 10 and 25 µg/ml, 4 h and 18 h, Fig. 1, relative to control = 100 %. From the text: Die antineoplastische Wirksamkeit wurde in vitro durch Messung der DNS-Synthese sowohl von B-16a- als auch von Lewis-Lungenkarzinom-Zellen durch eine Methode gemessen, der die Thymidin-Aufnahme zugrundeliegt. Zellen, die in Vorbereitung der Zellteilung DNS synthetisieren, sind durch ihre Fähigkeit gekennzeichnet, Thymidin aufzunehmen. Demnach ist die Zell-Proliferation mit der DNS-Synthese verbunden. Wenn die Menge der durch die Tumorzellen synthetisierten DNS vermindert wird, so ist das ein Anzeichen dafür, daß die Zellteilung und damit das Tumorwachstum gehemmt worden ist.
B-16a- und Lewis-Lungenkarzinom-Zellen wurden wie vor- stehend beschrieben erhalten. Die dispergierten Zellen wurden in sterilen 25 ml-Erlenmeyer-Kolben aus Kunststoff auf eine Konzentration von 1 x 10^5 Zellen/ml in MEM verdünnt. Tritium-markiertes Thymidin (^3H) mit einer spezifischen Aktivität von […] (50-80 Ci/mmol) wurde mit […] (2 µCi/ml) zu jedem ml der Zellsuspension hinzugefügt.
Zu einer Reihe von Kolben, die die B-16 - und Lewis-Lungenkarzinom-Zellen enthielten, wurde die Pyrazolon-Verbindung in Mengen von 0,1 , 1,0 , 10 und 25 µg/ml des Gesamtvolumens hinzugefügt. […]

Test [2] relates to B-16a-amelanotischem Melanom. Briefly: Spontaneous (full) metastasis of subcutaneously injected B-16a melanoma (lung tumour colonies) in mice. The class given is in vivo, C57BL/6J Mäuse. To be noted: for Lungen-Tumor-Kolonien B-16a-Zellen: 1,8 x 10^5 cells s.c., killed day 25, mean ± SEM; for Lungen-Tumor-Kolonien B-16a-Zellen (fraction in brackets): bracketed fraction. The text has this:
Wie bereits weiter oben festgestellt wurde, ist die Metastase […], die durch eine Reihe komplizierter Vorgänge dargestellt wird. Gegenwärtig finden zwei "Modell"-Systeme für die Untersuchung der in vivo-Metastase verbreitete Anwendung. Das erste Modellsystem umfaßt die subkutane Injektion der Tumorzellen in das Tier. Die subkutane Injektion der Tumorzellen und anschließende Entwicklung eines Primärtumors, gefolgt von spontaner Metastase, wird als "volle" Metastase betrachtet. Ein anderes Modellsystem umfaßt die Injektion der Tumorzellen durch die Schwanzvene. In Anbetracht der Komplexität der Metastase gilt die Schwanzvenen-Injektion als künstliches und nur partielles Modellsystem, da es nur die Vorgänge während des letzteren Teils der Metastase wiedergibt. Das Schwanzvenen-Modellsystem gilt jedoch auch als außerordentlich günstig im Hinblick auf eine Standardisierung der Versuchsbedingungen [vgl."Methods in Cancer Research", Kapitel VII, Academic Press, Inc., 1978].
Als Kontrolltiere wurden (unbehandelte) C57B1/6J-Mäuse nach folgender Arbeitsweise auf volle Metastase untersucht. Zellsuspensionen der B-16 - und 3LL-Karzinom-Zellen, die wie oben unter A und B beschrieben erhalten worden waren, wurden subkutan in die rechte Achselhöhlenregion der männlichen C57BL/6J-Mäuse injiziert (0,66 mm- = 26 gauge -Nadel; 0,2 ml). Injiziert wurden verschiedene Mengen der Zellsuspensionen im Bereich von 1 x 10^5 bis 1 x 10^6 Zellen. Versuche zur partiellen Metastase wurden in der Weise durchgeführt, daß Tumorzellen über die Schwanzvene in die (unbehandelten) Kontroll-Mäuse injiziert wurden. Die Tiere wurden unter identischen Bedingungen der Temperatur, Lichteinwirkungsdauer, Ernährung etc. gehalten. Nach einem Beobachtungszeitraum von 17 bis 30 Tagen wurden die für die volle Metastase und für die partielle Metastase verwendeten Tiere getötet, und die Lungen, Leber, Nieren, Milz und Gehirn-Gewebe wurde entnommen.
Das entnommene Gewebe wurde in Bouin-Lösung fixiert.
Die Zahl der metastatischen Knötchen in jedem Organ wurde mit Hilfe eines Bausch-und-Lomb Stereo-Zoom-Mikroskops bestimmt. Die Untersuchung der Kontroll- Mäuse auf metastatische Knötchen ergab bei 100 % der Tiere positive Befunde in bezug auf metastatische Lungentumoren; die Inkubationszeit für die Erzeugung solcher Metastasen betrug für die 3LL-Tumorzellen 17 bis 21 Tage und für die B-16 a -Tumorzellen 23 bis 30 Tage. In Leber, Nieren, Milz oder Gehirn-Gewebe wurden keine sichtbaren Knötchen beobachtet.
Die Wirkung der Verabreichung der Pyrazolon-Verbindung über einen längeren Zeitraum hinweg auf die Zahl der metastatischen Lungen-Kolonien des B-16 a und des Lewis-Lungen-Karzinoms wurde wie nachstehend beschrieben bestimmt.
3 mg 3-Methyl-1-[2-(2-naphthyloxy)-ethyl]-2-pyrazolin-5-on wurden in 0,6 ml Ethylalkohol gelöst, und die Lösung wurde mit konzentrierter Natronlauge auf pH 9,5 eingestellt.
Syngeneischen C57BL/6J Wirts-Mäusen wurde eine Suspension von 1,8 x 10^5 B-16 a -Zellen subkutan injiziert, die wie vorstehend beschrieben hergestellt wurde. Einer anderen Reihe syngeneischer C57BL/6J Wirts-Mäuse wurde eine Suspension von 1 x 10^5 Lewis-Lungen-Karzinom-Zellen, erhalten wie vorstehend beschrieben, subkutan injiziert. […] Die Kontroll-Mäuse und die behandelten Mäuse wurden unter identischen Bedingungen der Temperatur, Lichteinwirkungsdauer, Ernährung etc. gehalten. Die Mäuse, die die B-16 -Tumorzellen injiziert erhalten hatten wurden 25 Tage nach der Injektion der Tumorzellen getötet; die Mäuse, denen die Lewis-Lungen-Karzinom-Zellen injiziert worden waren, wurden 21 Tage nach der Injektion der Tumorzellen getötet.

Regarding `CC1=NN(CCOc2ccc3ccccc3c2)C(=O)C1` [3-Methyl-1-[2-(2-naphthyloxy)-ethyl]-2-pyrazolin-5-on], the “DNS-Synthese (3H-Thymidinaufnahme)” value in test [1] is “konzentrationsabhängige Abnahme der DNS-Synthese”. Moreover, the “Lungen-Tumor-Kolonien B-16a-Zellen” value is 1.7 ± 0.7 in test [2] (0.01 mg daily s.c., colonies on bilateral lung surface); 2.5 ± 0.9 in test [2] (0.02 mg daily s.c.); 3.1 ± 0.8 in test [2] (0.04 mg daily s.c.); 1.4 ± 0.8 in test [2] (0.08 mg daily s.c.). The “Lungen-Tumor-Kolonien B-16a-Zellen (fraction in brackets)” value in test [2] (0.01 mg daily s.c.) is 7/12; in test [2] (0.02 mg daily s.c.), 7/12; in test [2] (0.04 mg daily s.c.), 8/12; in test [2] (0.08 mg daily s.c.), 5/12.
